# Reference: ChEMBL document CHEMBL5725498, “ROR modulators and their uses” (2017)
# Tests used:
# [1] = TH17 Cytokine Inhibition ELISA: Human CD4+ T cells were differentiated to TH17 cells as described in the presence or absence of various concentrations of compounds in a final concentration of 0.1% DMSO in TexMACS medium. Supernatants were collected and stored at −20° C. until they were to be assayed for IL-17A, IL-17F, IL-17AF, IL-21 and/or IL-22 levels as determined by Ready-Set-Go ELISA kits (eBioscience) as per manufacturer's instructions. Endpoint absorbance was read at 450 nm and 570 nm according to manufacturer's instructions (eBioscience) using a microplate reader (Perkin Elmer). The percentage of cytokine inhibition was calculated with reference to DMSO treated cells and the IC50s were determined by GraphPad Prism software and presented in the table below.
# [2] = biological target: T1, Nuclear receptor ROR-gamma (Homo sapiens, UniProt P51449); test: RORgamma LBD Binding Assay: Compound binding to the human RORγ LBD was assessed using the Human RORγ Assay System (INDIGO Biosciences Inc.) as per manufacturer's instructions. Binding to the RORγ LBD was assessed using gradient concentrations of the indicated compounds in a final concentration of 0.5% DMSO, where IC50s were generated using Graphpad Prism.
# T1 sequence (P51449 whole entry): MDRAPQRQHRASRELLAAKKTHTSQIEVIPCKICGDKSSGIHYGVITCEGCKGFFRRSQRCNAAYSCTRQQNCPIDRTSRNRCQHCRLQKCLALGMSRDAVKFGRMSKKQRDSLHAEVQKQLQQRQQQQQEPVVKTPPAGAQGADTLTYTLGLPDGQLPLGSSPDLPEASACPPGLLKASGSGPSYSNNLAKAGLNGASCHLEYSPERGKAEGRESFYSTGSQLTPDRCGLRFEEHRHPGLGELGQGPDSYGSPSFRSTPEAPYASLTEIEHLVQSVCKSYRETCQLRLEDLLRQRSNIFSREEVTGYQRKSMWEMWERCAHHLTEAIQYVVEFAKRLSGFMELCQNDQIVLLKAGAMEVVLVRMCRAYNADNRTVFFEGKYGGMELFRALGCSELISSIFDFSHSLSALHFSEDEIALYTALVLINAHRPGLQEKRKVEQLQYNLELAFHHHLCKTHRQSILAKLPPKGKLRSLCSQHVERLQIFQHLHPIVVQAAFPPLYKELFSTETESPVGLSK
IC50 [1] [µM],Structure (SMILES),IC50 [2] [µM]
< 10,OC(c1ccc(CBr)cc1)(C(F)(F)F)C(F)(F)F,–
< 10,CN(C)C(=O)c1ccc2c(ccc(=O)n2Cc2ccc(C(O)(C(F)(F)F)C(F)(F)F)cc2)c1,–

Structure (SMILES),IC50 [1] [µM],IC50 [2] [µM]
CN(C)C(=O)c1ccc2c(c1)CCC(=O)N2Cc1ccc(C(O)(C(F)(F)F)C(F)(F)F)cc1,> 10,< 10
